Results: patent US20080214654A1, “Substituted Benzyloxy-Phenylmethylamide Derivatives” (Bayer HealthCare AG, priority 2004, published 2008)
Counter-ions that a name gives are not always drawn.

These compounds were tested against T1, human CMR-1 (Homo sapiens, UniProt Q7Z2W7) (assay: Measurement of the menthol-induced Ca2+ influx in HEK293 cells expressing CMR-1 receptor (Assay 1)). Conditions: HEK293 cells stably expressing human CMR-1; preincubation with compound, menthol stimulation; fluo4-AM fluorescence.
T1 construct: expressed in transfected cells
T1 sequence (Q7Z2W7 whole entry): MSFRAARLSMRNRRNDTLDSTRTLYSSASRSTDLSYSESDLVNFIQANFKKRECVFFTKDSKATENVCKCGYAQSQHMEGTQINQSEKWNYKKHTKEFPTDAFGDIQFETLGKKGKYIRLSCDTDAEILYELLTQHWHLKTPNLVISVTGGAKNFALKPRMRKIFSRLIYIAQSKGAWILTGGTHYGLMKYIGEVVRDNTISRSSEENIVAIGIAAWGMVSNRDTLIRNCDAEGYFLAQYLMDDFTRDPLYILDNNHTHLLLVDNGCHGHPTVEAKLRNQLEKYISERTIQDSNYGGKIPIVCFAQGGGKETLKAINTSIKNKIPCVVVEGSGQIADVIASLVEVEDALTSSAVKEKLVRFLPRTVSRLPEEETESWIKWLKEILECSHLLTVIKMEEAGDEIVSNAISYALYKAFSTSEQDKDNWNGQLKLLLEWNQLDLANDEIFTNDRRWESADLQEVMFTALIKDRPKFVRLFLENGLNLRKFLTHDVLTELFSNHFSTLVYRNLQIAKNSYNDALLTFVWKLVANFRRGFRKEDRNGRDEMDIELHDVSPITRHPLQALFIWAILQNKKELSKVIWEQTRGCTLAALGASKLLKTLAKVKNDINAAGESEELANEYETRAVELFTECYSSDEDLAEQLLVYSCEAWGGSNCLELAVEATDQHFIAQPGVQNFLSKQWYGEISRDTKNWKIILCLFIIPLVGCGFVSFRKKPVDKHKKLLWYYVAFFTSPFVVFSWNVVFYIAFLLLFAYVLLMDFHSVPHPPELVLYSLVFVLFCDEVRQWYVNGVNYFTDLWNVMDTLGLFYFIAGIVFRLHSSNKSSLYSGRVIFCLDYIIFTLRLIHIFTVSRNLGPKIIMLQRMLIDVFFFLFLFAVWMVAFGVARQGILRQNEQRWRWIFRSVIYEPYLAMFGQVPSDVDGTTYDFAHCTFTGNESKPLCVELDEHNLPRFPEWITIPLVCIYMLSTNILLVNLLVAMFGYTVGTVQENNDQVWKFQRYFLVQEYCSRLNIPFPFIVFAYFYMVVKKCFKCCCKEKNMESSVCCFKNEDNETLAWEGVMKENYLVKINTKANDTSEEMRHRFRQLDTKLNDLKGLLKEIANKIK
Format: cell-based
Text: Measurement of the Menthol-Induced Ca^2+ Influx in […] Cell Expressing CMR-1 Receptor (Assay 1).
A cell-based calcium influx assay using HEK293 cells stably expressing human CMR-1 is used to identify CMR-1 receptor-antagonists. Menthol, a CMR-1 specific agonist, is used for stimulation of these cells, inducing an increase in intracellular calcium. This menthol-induced Ca^2+ increase is traced by fluorescence measurement. Therefore the cells are loaded with fluo4-AM prior to stimulation. For testing inhibitors the cells are preincubated with various concentrations of the compound before menthol stimulation. The potency of potential CMR-1 inhibitors is quantified by measuring decrease of fluorescence.

SMILES	IC50 [nM]
COc1cc(CN(CCCNC(=O)OC(C)(C)C)C(=O)c2cccs2)ccc1OCc1ccc(F)cc1 [Example 10]	70
COc1cc(CN(CCN)C(=O)c2cccs2)ccc1OCc1ccccc1F [Example 17, N-(2-aminoethyl)-N-{4-[(2-fluorobenzyl)oxy]-3-methoxybenzyl}thiophene-2-carboxamide trifluoroacetate]	1
COc1cc(CN(Cc2ccccc2)C(=O)c2ccccc2)ccc1OCc1ccc(F)cc1 [Example 38, N-benzyl-N-{4-[(4-fluorobenzyl)oxy]-3-methoxybenzyl}benzamide]	40
COc1cc(CN(CCN)C(=O)CC(C)(C)C)ccc1OCc1ccc(F)cc1F [Example 20]	8

Now from value to compound:

IC50 [nM]	SMILES
1	COc1cc(CN(CCN)C(=O)c2cccs2)ccc1OCc1ccccc1 [Example 3-1, N-(2-aminoethyl)-N-[4-(benzyloxy)-3-methoxybenzyl]thiophene-2-carboxamide hydrochloride]
150	COc1cc(CN(CCN)C(=O)c2ccccc2)ccc1OCc1ccccc1 [Example 4-1, N-(2-aminoethyl)-N-[4-(benzyloxy)-3-methoxybenzyl]benzamide trifluoroacetate]
